Laboratory results reported in article PMC3050433, “The effects of maribavir on the autophosphorylation of ganciclovir resistant mutants of the cytomegalovirus UL97 protein” (Herpesviridae, 2010).
Numbering of substitutions follows the chain as printed. “Also recorded” adds a separate entry of the source.

Legend:
Details in all cases: wild type normalised to 100%
UL97 K355Q = target: T1, UL97 K355Q (Human cytomegalovirus, UniProt Q68101, K355Q); assay: GCV phosphorylation in baculovirus-infected Sf21 insect cells, K355Q; type: cell-based
T1 construct: PCR reaction to generate the full length UL97; honey bee melittin secretion signal (N); expressed in transfected cells; host or cells: Sf21 insect cells infected with recombinant baculovirus
T1 sequence (Q68101 1-707 K355Q): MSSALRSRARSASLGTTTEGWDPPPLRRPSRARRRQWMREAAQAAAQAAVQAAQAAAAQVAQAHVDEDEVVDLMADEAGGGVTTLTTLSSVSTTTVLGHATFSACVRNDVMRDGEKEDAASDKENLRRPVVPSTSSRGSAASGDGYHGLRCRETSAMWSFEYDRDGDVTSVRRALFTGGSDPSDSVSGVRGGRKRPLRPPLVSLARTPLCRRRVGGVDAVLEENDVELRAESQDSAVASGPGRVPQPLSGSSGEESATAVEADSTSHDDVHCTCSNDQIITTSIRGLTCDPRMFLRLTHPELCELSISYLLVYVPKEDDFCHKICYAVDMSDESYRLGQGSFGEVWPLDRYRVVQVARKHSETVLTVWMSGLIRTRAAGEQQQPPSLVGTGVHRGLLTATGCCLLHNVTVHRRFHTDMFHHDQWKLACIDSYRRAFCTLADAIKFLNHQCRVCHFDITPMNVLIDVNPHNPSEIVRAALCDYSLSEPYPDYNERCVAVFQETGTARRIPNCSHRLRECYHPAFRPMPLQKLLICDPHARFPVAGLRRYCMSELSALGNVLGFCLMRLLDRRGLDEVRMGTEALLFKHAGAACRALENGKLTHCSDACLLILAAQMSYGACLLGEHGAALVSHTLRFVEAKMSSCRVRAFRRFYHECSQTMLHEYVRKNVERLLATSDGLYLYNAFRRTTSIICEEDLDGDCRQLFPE
Method: (§1) Sf21 insect cells were infected with wild type or mutant UL97 recombinant baculoviruses at an m.o.i. of 10. After 48 h incubation at 28°C, the culture medium was replaced with fresh medium containing 1.0 mM GCV and [^3H] GCV (0.55 Mbq, Moravek Radiochemicals, California, USA) After a further 24 hours of incubation, nucleotides were harvested by acid hydrolysis (0.5 M perchloric acid), neutralisation to pH 7.5 (2.5 M KOH, 1.5 M KH2PO4) and centrifugation (13000 × g). 50 μl aliquots of supernatant were spotted onto 20 mm diameter DEAE-coated DE81 chromatographic paper discs and the monophosphorylated GCV allowed to bind. The discs were washed twice in 3 ml 10 mM ammonium acetate for 10 minutes and twice in 95% ethanol for 10 minutes. After drying 5 ml of sigmafluor was added (Sigma Chemicals, Dorset, UK) and the radioactivity determined by liquid scintillation counting.

UL97 D456A = target: T2, UL97 D456A (Human cytomegalovirus, UniProt Q68101, D456A); assay: GCV phosphorylation in baculovirus-infected Sf21 insect cells, D456A; type: cell-based
T2 construct: PCR reaction to generate the full length UL97; honey bee melittin secretion signal (N); made in house; host or cells: Sf21 insect cells, recombinant baculovirus (pMelBac C)
T2 sequence (Q68101 1-707 D456A): T1 sequence (Q68101 1-707 K355Q) with Q355K, D456A
Method: as §1

UL97 N461G = assay: GCV phosphorylation in baculovirus-infected Sf21 insect cells, N461G; type: cell-based, human cytomegalovirus
Method: as §1

Nc1nc(O)c2ncn(COC(CO)CO)c2n1 [GCV, ganciclovir]
GCV phosphorylation relative to wild type UL97 (UL97 K355Q): unable to phosphorylate GCV; also recorded: complete loss of GCV kinase activity | GCV phosphorylation relative to wild type UL97 (UL97 D456A): no effect on GCV phosphorylation | GCV phosphorylation relative to wild type UL97 (UL97 N461G): complete loss of GCV kinase activity
